Laboratory results as given in ChEMBL document CHEMBL1127132, “Synthesis and biological activity of tetracyclic carbapenems” (1993).
In brackets after ≈: the same amount, converted by molar mass.

Key:
Assay type in all cases: functional
[1] = tested on: Acinetobacter; assay: (§1) Compound was evaluated for antibacterial activity against Acinetobacter 14601 compared to imipenem
[2] = tested on: Enterobacter cloacae; assay: Compound was evaluated for antibacterial activity against Enterobacter cloacae 5744 compared to imipenem
[3] = tested on: Escherichia coli; assay: Compound was evaluated for antibacterial activity against Escherichia coli F14 compared to imipenem
[4] = tested on: Escherichia coli; assay: Compound was evaluated for antibacterial activity against Escherichia coli Neumann compared to imipenem
[5] = tested on: Klebsiella; assay: Compound was evaluated for antibacterial activity against Klebsiella 57USA compared to imipenem
[6] = tested on: Klebsiella; assay: Compound was evaluated for antibacterial activity against Klebsiella 63 compared to imipenem
[7] = tested on: Morganella morganii; assay: Compound was evaluated for antibacterial activity against Proteus morganii.932 compared to imipenem
[8] = tested on: Proteus mirabilis; assay: Compound was evaluated for antibacterial activity against Proteus mirabilis 1235 compared to imipenem
[9] = tested on: Proteus vulgaris; assay: Compound was evaluated for antibacterial activity against Proteus vulgaris N6 compared to imipenem
[10] = tested on: Providencia rettgeri; assay: Compound was evaluated for antibacterial activity against Proteus rettgeri 10007 compared to imipenem
[11] = tested on: Pseudomonas aeruginosa; assay: Compound was evaluated for antibacterial activity against Pseudomonas aeruginosa F 41 compared to imipenem
[12] = tested on: Serratia; assay: Compound was evaluated for antibacterial activity against serratia 16002 compared to imipenem
[13] = tested on: Staphylococcus; assay: Compound was evaluated for antibacterial activity against Staphylococcus 25455 compared to imipenem
[14] = tested on: Staphylococcus; assay: Compound was evaluated for antibacterial activity against Staphylococcus 25470 compared to imipenem
[15] = tested on: Staphylococcus aureus; assay: Compound was evaluated for antibacterial activity against Staphylococcus aureus 133 compared to imipenem
[16] = tested on: Serratia; assay: Compound was evaluated for antibacterial activity against serratia 16001 compared to imipenem
[17] = tested on: Staphylococcus aureus; assay: Compound was evaluated for antibacterial activity against Staphylococcus aurues 133 compared to imipenem
[18] = tested on: Acinetobacter sp.; assay: as §1
[19] = tested on: Enterobacter cloacae; assay: Compound was evaluated for antibacterial activity against Enterob. cl.5744 compared to imipenem
[20] = tested on: Staphylococcus; assay: Tested for antibacterial activity against Staphylococcus 25470 compared to imipenem

| MIC [1] [µg/mL] | MIC [2] [µg/mL] | MIC [3] [µg/mL] | MIC [4] [µg/mL] | MIC [5] [µg/mL] | MIC [6] [µg/mL] | MIC [7] [µg/mL] | MIC [8] [µg/mL] | MIC [9] [µg/mL] | MIC [10] [µg/mL] | MIC [11] [µg/mL] | MIC [12] [µg/mL] | MIC [13] [µg/mL] | MIC [14] [µg/mL] | MIC [15] [µg/mL] | MIC [16] [µg/mL] | MIC [17] [µg/mL] | MIC [20] [µg/mL] | SMILES | MIC [18] [µg/mL] | MIC [19] [µg/mL] |
| --- | --- | --- | --- | --- | --- | --- | --- | --- | --- | --- | --- | --- | --- | --- | --- | --- | --- | --- | --- | --- |
| 4 | 4 | 8 | 0.5 | 4 | 2 | 1 | < 0.25 | < 0.25 | 2 | 128 | 16 | < 0.25 | 8 | < 0.25 | 8 |  |  | C[C@@H](O)[C@H]1C(=O)N2C(C(=O)[O-])=C3c4ccccc4SC[C@@H]3[C@H]12.[Na+] |  |  |
| 16 | 8 | 8 | 1 | 4 | 4 | 2 | 1 | < 0.25 | 4 | 128 | 32 | 1 | 32 |  | 32 | 1 |  | C[C@@H](O)[C@H]1C(=O)N2C(C(=O)[O-])=C3c4ccsc4CC[C@@H]3[C@H]12.[Na+] |  |  |
| 64 | 32 | 16 | 2 | 1 | 16 | 16 | 0.5 | 1 | 16 | 128 | 64 | 0.5 |  | 0.5 | 64 |  | 128 | C[C@@H](O)[C@H]1C(=O)N2C(C(=O)[O-])=C3c4ccccc4CCC[C@@H]3[C@H]12.[Na+] |  |  |

| SMILES | MIC [1] [µg/mL] | MIC [2] [µg/mL] | MIC [3] [µg/mL] | MIC [4] [µg/mL] | MIC [5] [µg/mL] | MIC [6] [µg/mL] | MIC [7] [µg/mL] | MIC [8] [µg/mL] | MIC [9] [µg/mL] | MIC [10] [µg/mL] | MIC [11] [µg/mL] | MIC [12] [µg/mL] | MIC [13] [µg/mL] | MIC [14] [µg/mL] | MIC [15] [µg/mL] | MIC [16] [µg/mL] | MIC [17] [µg/mL] | MIC [20] [µg/mL] | MIC [18] [µg/mL] | MIC [19] [µg/mL] |
| --- | --- | --- | --- | --- | --- | --- | --- | --- | --- | --- | --- | --- | --- | --- | --- | --- | --- | --- | --- | --- |
| C[C@@H](O)[C@H]1C(=O)N2C(C(=O)O)=C(SCCNC=N)C[C@H]12 [IMIPENEM ANHYDROUS] |  |  | < 0.25 | < 0.25 | < 0.25 | < 0.25 | 0.5 (≈ 1.67 µM) | 4 (≈ 13.4 µM) | 0.5 (≈ 1.67 µM) | 2 (≈ 6.68 µM) | 2 (≈ 6.68 µM) | 0.5 (≈ 1.67 µM) | < 0.25 | 32 (≈ 107 µM) | < 0.25 | < 0.25 |  |  | < 0.25 | 0.5 (≈ 1.67 µM) |
